Earlier results, collected in paper PMC9332635 (Journal of Food and Drug Analysis, 2017).

Key:
[1] = method validation study of isosteviol
[2] = system: HBsAg secretion in HBV-transfected cell-lines

| Compound | Long-term stability [1] [days] | IC50 for inhibiting HBsAg secretion [2] [µg/mL] |
| --- | --- | --- |
| C[C@@]12CC[C@@H]3[C@@](CC[C@H]4[C@@]3(C)CCC[C@@]4(C)C(=O)O)(CC1=O)C2 [isosteviol] | 61 | – |
| Nc1ccn([C@@H]2CS[C@H](CO)O2)c(=O)n1 [lamivudine] | – | 49.13 |
